{"source": "patent US5464826A", "about": "“Method of treating tumors in mammals with 2',2'-difluoronucleosides” (Eli Lilly and Company, priority 1994, dated 1995)", "key": {"[1]": {"tested_on": "human leukemic cells (CCRF-CEM cell line)", "assay": "Cytotoxicity Screen (growth inhibition)", "assay_type": "cell-based", "details": "for IC50: Homo sapiens, read-out: IC50 (concentration giving 50% growth inhibition)", "from_the_text": "The compounds represented by formula I employed in the present invention are cytostatic in that they inhibit the growth of human leukemic cells (CCRF-CEM cell line). […] T1 TABLE 1-Cytotoxicity Screen? -Compound Name?"}, "[2]": {"tested_on": "L1210V lymphocytic leukemia", "assay": "L1210V Lymphocytic Leukemia Tumor System", "assay_type": "in vivo, mice", "details": "Experiment 1, IP; for Indefinite Survivors: 45 day survivors; for Toxic Deaths: deaths/mice in group", "method": "The study testing the efficacy of these compounds against L1210V leukemia was initiated by an IP inoculation of 1×10^6 cells. Treatment was begun 24 hours after inoculation. The response to therapy was determined by comparing the mean life span of the ten treated animals to that of the ten control animals; prolongation of life in the treated animals beyond that of controls is expressed as a percentage. In the Table, column 1 gives the example number of the compound tested; column 2, the experiment number; column 3, the dose level of the compound in mg/kg; column 4, the route of administration; column 5, the dosage schedule, that is, the days on which the compound was administered to the mice; column 6, the average increase in life span of the treated mice as compared to the control mice; column 7, the toxic deaths over the number of mice in each group; and column 8, the indefinite survivors, that is, the number of 45 day survivors in each group."}, "[3]": {"tested_on": "X5563 plasma cell myeloma", "assay": "X5563 plasma cell myeloma tumor model", "assay_type": "in vivo, mice (C3H)", "details": "30.0 mg/kg; IP; Daily for 9 days", "from_the_text": "X5563 Myeloma--the tumor is maintained in C3H mice.\n(§1) The tumor was removed from passage animals and minced into 1 to 3 mm square fragments using sterile techniques. Tumor pieces were checked for sterility using both Antibiotic Medium 1 and Brain Heart Infusion (Difco; Detroit, Mich.). Recipient mice were shaved and tumor pieces were implanted subcutaneously in the axillary region by trocar. Drug therapy on the appropriate schedule was initiated on the day after tumor implant. The compound was dissolved in saline for all experiments. All animals were weighed at the beginning and end of drug treatment. Food and water were provided ad libitum. On days 10 to 12, two dimensional measurements (width and length) of all tumors were taken using vernier calipers. Tumor weights were calculated from these measurements using the following formula:\nTumor Weight (mg)=Tumor Length (mm)×Tumor Width (mm)^2 /2\nFor all data, the tumor weight was rounded to the nearest tenth of a gram for analysis. No group is included in the analysis for therapeutic activity in which deaths attributable to drug toxicity exceeded 30 percent of the treated group.\nIn Table 3 which follows, column 1 gives the example number of the compound tested; column 2 provides the tumor system; column 3, the dose level; column 4, the route administered; column 5, the dosage schedule; column 6, the percent inhibition of the tumor; and column 7, the toxic deaths observed prior to completion of the study."}, "[4]": {"tested_on": "6C3HED, CA755, P1534J, X5563", "assay": "additional tumor test systems (summary statement)", "assay_type": "in vivo, mice", "details": "systems include 6C3HED", "from_the_text": "These systems include the 6C3HED lymphosarcoma, also known as the Gardner lymphosarcoma (6C3HED); the CA-755 adenocarcinoma (CA755); the P1534J lymphatic leukemia (P1534J); and the X5563 plasma cell myeloma (X5563). Each of these systems is described in detail below.\nas §1, with “formula: […]” for “formula:”"}}, "note": "Like-named read-outs stand apart in the source and are kept apart here."}
{"molecule": "1-(2,6-diamino-9H-purin-9-yl)-2-desoxy-2,2-difluororibose", "values": [{"measurement": "IC50 (concentration giving 50% growth inhibition)", "setting": "[1]", "value": 0.075, "unit": "µg/mL"}]}
{"molecule": "1-(6-Amino-9H-purin-9-yl)-2-desoxy-2,2-difluororibose [Example 6]", "values": [{"measurement": "Percent Increase Life Span", "setting": "[2]; 100.0 mg/kg, Daily for 9 days", "value": 16, "unit": "%"}, {"measurement": "Indefinite Survivors", "setting": "[2]; 100.0 mg/kg, Daily for 9 days", "value": 0}, {"measurement": "Toxic Deaths", "setting": "[2]; 100.0 mg/kg, Daily for 9 days", "value": "0/7"}, {"measurement": "Percent Increase Life Span", "setting": "[2]; 200.0 mg/kg, Daily for 9 days", "value": 18, "unit": "%"}, {"measurement": "Indefinite Survivors", "setting": "[2]; 200.0 mg/kg, Daily for 9 days", "value": 0}, {"measurement": "Toxic Deaths", "setting": "[2]; 200.0 mg/kg, Daily for 9 days", "value": "0/7"}]}
{"molecule": "O=c1[nH]c(=O)c2ncn(C3O[C@H](CO)[C@@H](O)C3(F)F)c2[nH]1", "note": "(stereo partly shown) [1-(2,6-dioxo-1H,3H,9H-purin-9-yl)-2-desoxy-2,2-difluororibose]", "values": [{"measurement": "IC50", "setting": "[1]", "value": 0.3, "unit": "µg/mL"}]}
{"molecule": "Nc1nc2c(ncn2C2O[C@H](CO)[C@@H](O)C2(F)F)c(=O)[nH]1", "note": "(stereo partly shown) [1-(2-amino-6-oxo-1H,9H-purin-9-yl)-2-desoxy-2,2-difluororibose]", "values": [{"measurement": "IC50", "setting": "[1]", "value": 0.1, "unit": "µg/mL"}]}
{"molecule": "O=c1ccn(C2O[C@H](CO)[C@@H](O)C2(F)F)c(=O)[nH]1", "note": "(stereo partly shown) [Example 3, 1-(2,4-Dioxo-1H, 3H-pyrimidin-1-yl)-2-desoxy-2,2-difluororibose]", "values": [{"measurement": "IC50", "setting": "[1]", "value": 5.4, "unit": "µg/mL"}]}
{"molecule": "Cc1cn(C2O[C@H](CO)[C@@H](O)C2(F)F)c(=O)nc1N", "note": "(stereo partly shown) [Example 4, 1-(4-Amino-5-methyl-2-oxo-1H-pyrimidin-1-yl)-2-desoxy-2,2-difluororibose]", "values": [{"measurement": "IC50", "setting": "[1]", "value": 0.3, "unit": "µg/mL"}]}
{"molecule": "Nc1ccn(C2O[C@H](CO)[C@H](O)C2(F)F)c(=O)n1", "note": "(stereo partly shown) [Example 5, 1-(4-Amino-2-oxo-1H-pyrimidin-1-yl)-2-desoxy-2,2-difluoroxylose]", "values": [{"measurement": "Percent Inhibition of Tumor", "setting": "[3]", "value": 28, "unit": "%"}, {"measurement": "Toxic Deaths", "setting": "[3]", "value": "0/10"}, {"measurement": "Percent Increase Life Span", "setting": "[2]; 30.0 mg/kg, Daily for 10 days", "value": 57, "unit": "%"}, {"measurement": "Indefinite Survivors", "setting": "[2]; 30.0 mg/kg, Daily for 10 days", "value": 0}, {"measurement": "Toxic Deaths", "setting": "[2]; 30.0 mg/kg, Daily for 10 days", "value": "0/10"}, {"measurement": "activity in additional tumor test systems (in words)", "setting": "[4]", "value": "demonstrated activity in additional tumor test systems"}, {"measurement": "IC50", "setting": "[1]; CCRF-CEM", "value": 0.3, "unit": "µg/mL"}]}
{"molecule": "Nc1nc(Cl)nc2c1ncn2[C@H]1O[C@H](CO)[C@@H](O)C1(F)F", "note": "[α-1-(2-chloro-6-amino-9H-purin-9-yl)-2-desoxy-2,2-difluororibose]", "values": [{"measurement": "IC50", "setting": "[1]", "value": "> 20", "unit": "µg/mL"}]}
{"molecule": "Nc1ncnc2c1ncn2[C@H]1O[C@H](CO)[C@@H](O)C1(F)F", "note": "[α-1-(6-amino-9H-purin-9-yl)-2-desoxy-2,2-difluororibose]", "values": [{"measurement": "IC50", "setting": "[1]", "value": 6.9, "unit": "µg/mL"}]}
{"molecule": "Nc1nc(Cl)nc2c1ncn2[C@@H]1O[C@H](CO)[C@@H](O)C1(F)F", "note": "[β-1-(2-chloro-6-amino-9H-purin-9-yl)-2-desoxy-2,2-difluororibose]", "values": [{"measurement": "IC50", "setting": "[1]", "value": 0.4, "unit": "µg/mL"}]}
{"molecule": "Nc1ncnc2c1ncn2[C@@H]1O[C@H](CO)[C@@H](O)C1(F)F", "note": "[β-1-(6-amino-9H-purin-9-yl)-2-desoxy-2,2-difluororibose]", "values": [{"measurement": "IC50", "setting": "[1]", "value": 0.5, "unit": "µg/mL"}]}
